This note sets out measurements from US11680056B2, “MK2 inhibitors and uses thereof” (Xinthera, Inc., priority 2021, dated 2023).

Bounds are passed on as bounds.

Assay [1] deals with p38a/PRAK (Homo sapiens (Human), UniProt Q16539). The experiment in a line: p38a/PRAK biochemical assay: activation of PRAK by p38, FITC-HSP27 peptide phosphorylation (IMAP FP). The conditions noted are these: 10-point 1:3 dilution, top dose 300 μM; 60 pM active p38a, 1 nM inactive PRAK, 10 μM ATP, 2 h incubation; read-out: p38a/PRAK Enzyme pIC50 (converted). Here is the method:
(§1) Expression vectors of the recombinant MK2 and PRAK kinases were constructed by cloning of the codon optimized gene sequences of MK2 (Uniprot ID P49137, amino acid fragment F46-H400), or PRAK (Uniprot ID Q81W41, amino acid fragment M1-Q471) into pGEX-4T1 (GE) for over expression of these kinases with N-terminal GST-tag. Protein expression was carried out in E. coli BL21 by growing the hosts in TB medium, induction of protein expression with 0.5 mM IPTG at approximate 0.8 OD600, and incubation of the cultures at 18° C. for 14-20 hours afterwards. The harvested cells were resuspended in […] of Lysis buffer (50 mM Tris-HCl, pH 8.0, 500 mM NaCl, 1 mM DTT, 5% glycerol, and 1 mM PMSF) per gram of wet cell mass and homogenized at 4° C. in a microfluidizer (ATS, Suzhou, China) at 14,000 psi pressure, 3 passes. The cell lysates were clarified by centrifugation and the supernatants containing the GST-fusion proteins were purified by affinity chromatography using GSH-Sepharose (GE) gravity flow columns pre-equilibrated in Buffer A (50 mM Tris-HCl, pH 8.0, 500 mM NaCl, 1 mM DTT, and 5% glycerol). After thorough washing of the columns with Buffer A, the bound GST-proteins were eluted by Buffer B (50 mM Tris, pH 8.0, 500 mM NaCl, 1 mM DTT, 5% glycerol, 10 mM glutathione), followed by size-exclusion purification on Superdex 200 column equilibrated in Buffer A. The purified proteins were concentrated to approximately 1 mg/ml and stored at −80° C.
This study evaluates the inhibitory potency of invention compound on p38/MK2 pathway vs p38/PRAK pathway. More specially the compound concentration (IC50) was determined that inhibited half of the maximal activation of MK2 or PRAK by p38. MK2 activation study was set up without or with a serial of 10-point 1:3 dilution of invention compound at top dose of […], and PRAK activation study was set up without or with a serial of 10-point 1:3 dilution of invention compound at top dose of 300 μM. The MK2 and PRAK activity were determined by the phosphorylation level of HSP27 peptide conjugated with FITC.
(§2) After 2 h incubation of the reaction mixture with various concentration of invention compound (200 nL), 60 μL 1×IMAP solution Mixture (Molecular Devices, Cat R8127) was added to the reaction mixture and incubated for another half hour. The signal was then read by Synergy™ Neo2 Multi-Mode Microplate Reader with filter setting (Ex/Em=485 nm/FITC FP-P pol 528 nm & FITC FP-S pol 528 nm)
(§3) The signal was then normalized to vehicle control and fitted in Xfit to generate IC50. The selectivity of MK2 over PRAK was calculated by the formular Selectivity=IC50 of PRAK/IC50 of MK2.

Assay [2] has as its target p38a/MK2 (Homo sapiens (Human), UniProt P49137+Q16539). The experiment in a line: p38a/MK2 biochemical assay: activation of MK2 by p38, FITC-HSP27 peptide phosphorylation (IMAP FP). The conditions noted are these: 10-point 1:3 dilution, top dose 10 μM, 60 pM active p38a, 1 nM inactive MK2, 10 μM ATP, 2 h incubation; for IC50: read-out: p38a/MK2 (10 μM) Enzyme pIC50 (converted). Here is the method:
as §1
This study evaluates the inhibitory potency of invention compound on p38/MK2 pathway vs p38/PRAK pathway. More specially the compound concentration (IC50) was determined that inhibited half of the maximal activation of MK2 or PRAK by p38. MK2 activation study was set up without or with a serial of 10-point 1:[…], and PRAK activation study was set up without or with a serial of 10-point 1:3 dilution of invention compound at top dose of 300 μM. The MK2 and PRAK activity were determined by the phosphorylation level of HSP27 peptide conjugated with FITC.
as §2, §3

Sequence of p38a/PRAK (Q16539 whole entry, the tested form may be a part): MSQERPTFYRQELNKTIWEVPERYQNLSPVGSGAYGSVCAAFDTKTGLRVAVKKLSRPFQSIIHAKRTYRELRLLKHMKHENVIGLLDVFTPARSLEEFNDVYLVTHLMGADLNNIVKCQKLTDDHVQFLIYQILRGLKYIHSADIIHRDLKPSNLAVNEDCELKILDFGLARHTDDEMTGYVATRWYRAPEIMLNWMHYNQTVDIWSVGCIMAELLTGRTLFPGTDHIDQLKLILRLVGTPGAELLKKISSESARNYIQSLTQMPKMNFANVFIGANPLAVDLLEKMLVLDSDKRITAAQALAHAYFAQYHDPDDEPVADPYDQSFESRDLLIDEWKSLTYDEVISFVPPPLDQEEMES
Sequence of p38a/MK2 (P49137 46-400): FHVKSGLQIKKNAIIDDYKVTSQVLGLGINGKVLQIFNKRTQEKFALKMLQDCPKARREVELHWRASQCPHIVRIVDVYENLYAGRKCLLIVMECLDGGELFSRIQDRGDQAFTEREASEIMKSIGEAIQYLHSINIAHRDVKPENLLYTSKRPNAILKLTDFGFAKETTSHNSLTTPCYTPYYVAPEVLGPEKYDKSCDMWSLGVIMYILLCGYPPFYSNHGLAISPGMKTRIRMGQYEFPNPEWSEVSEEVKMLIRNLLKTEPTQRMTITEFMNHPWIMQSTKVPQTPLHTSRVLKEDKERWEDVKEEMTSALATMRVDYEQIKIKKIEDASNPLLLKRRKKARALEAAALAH
Sequence of p38a/MK2 (Q16539 whole entry): as the sequence (Q16539 whole entry, the tested form may be a part) above

For `Cc1cnc(-c2nc(C(C)(C)O)cs2)cc1-n1c(C)cc(OCc2ncc(F)cc2F)c(Cl)c1=O` (atropisomer, axis not shown) [Example 2, 3-chloro-4-[(3,5-difluoropyridin-2-yl)methoxy]-2′-[4-(2-hydroxypropan-2-yl)-1,3-thiazol-2-yl]-5′,6-dimethyl-[1,4′-bipyridin]-2-one], in assay [1], the IC50 was 3.98 µM. For the same molecule, the “p38a/MK2 (10 μM) Enzyme pIC50” value in assay [2] was 7.5. With `Cc1cnc(-c2ccnc(C3(O)CC3)n2)cc1-n1c(C)cc(OCc2ncc(F)cc2F)c(Cl)c1=O` (atropisomer, axis not shown) [Example 3, 3-chloro-4-[(3,5-difluoropyridin-2-yl)methoxy]-2′-[2-(1-hydroxycyclopropyl)pyrimidin-4-yl]-5′,6-dimethyl-[1,4′-bipyridin]-2-one], the IC50 in assay [1] was 5.01 µM; in assay [2], 0.02 µM. For the molecule `Cc1cnc(-c2ccnc(C(C)(C)CO)n2)cc1-n1c(C)cc(OCc2ncc(F)cc2F)c(Cl)c1=O` (atropisomer, axis not shown) [Example 4, 3-chloro-4-[(3,5-difluoropyridin-2-yl)methoxy]-2′-[2-(1-hydroxy-2-methylpropan-2-yl)pyrimidin-4-yl]-5′,6-dimethyl-[1,4′-bipyridin]-2-one], the IC50 in assay [1] was 7.94 µM. Besides, the “p38a/MK2 (10 μM) Enzyme pIC50” value in assay [2] was determined as 7.8. The matching figures for `Cc1cnc(-c2ccnc(C(C)(C)C(F)F)n2)cc1-n1c(C)cc(OCc2ncc(F)cc2F)c(Cl)c1=O` (atropisomer, axis not shown) [Example 5, 3-chloro-2′-[2-(1,1-difluoro-2-methylpropan-2-yl)pyrimidin-4-yl]-4-[(3,5-difluoropyridin-2-yl)methoxy]-5′,6-dimethyl-[1,4′-bipyridin]-2-one]: 3.16 µM and 7.8. `COc1cnc(-c2ccnc(C(C)(C)O)n2)cc1-n1c(C)cc(OCc2ncc(F)cc2F)c(Cl)c1=O` (atropisomer, axis not shown) [Example 7, 3-chloro-4-[(3,5-difluoropyridin-2-yl)methoxy]-2′-[2-(2-hydroxypropan-2-yl)pyrimidin-4-yl]-5′-methoxy-6-methyl-[1,4′-bipyridin]-2-one]: the IC50 is 63.1 µM in assay [1] and 0.501 µM in assay [2]. For the molecule `Cc1cnc(-c2nc(C(C)(C)O)cs2)cc1-n1c(C)cc(OCc2ncc(F)cc2F)cc1=O` (atropisomer, axis not shown) [Example 8, 4-[(3,5-difluoropyridin-2-yl)methoxy]-2′-[4-(2-hydroxypropan-2-yl)-1,3-thiazol-2-yl]-5′,6-dimethyl-[1,4′-bipyridin]-2-one], in assay [1], the IC50 was greater than 316 µM. Also, the “p38a/MK2 (10 μM) Enzyme pIC50” value in assay [2] is less than 5.0. The matching figures for `Cc1cnc(-c2cc(C3CC3)nc(C(C)(C)O)n2)cc1-n1c(C)cc(OCc2ncc(F)cc2F)c(Cl)c1=O` (atropisomer, axis not shown) [Example 10, 3-chloro-2′-[6-cyclopropyl-2-(2-hydroxypropan-2-yl)pyrimidin-4-yl]-4-[(3,5-difluoropyridin-2-yl)methoxy]-5′,6-dimethyl-[1,4′-bipyridin]-2-one]: 5.01 µM and 5.8. The like results for `Cc1cnc(-c2cccc([C@](C)(O)CO)n2)cc1-n1c(C)cc(OCc2ncc(F)cc2F)c(Cl)c1=O` (atropisomer, axis not shown) [Example 14, 3-chloro-4-[(3,5-difluoropyridin-2-yl)methoxy]-2′-[6-(1,2-dihydroxypropan-2-yl)pyridin-2-yl]-5′,6-dimethyl-[1,4′-bipyridin]-2-one] were, in that order, 20 µM and 7.7. Turning to `Cc1cnc(-c2ccnc(C(C)(C)O)n2)cc1-n1c(C)cc(COc2ncc(F)cc2F)c(Cl)c1=O` (atropisomer, axis not shown) [Example 15, 3-chloro-4-{[(3,5-difluoropyridin-2-yl)oxy]methyl}-2′-[2-(2-hydroxypropan-2-yl)pyrimidin-4-yl]-5′,6-dimethyl-[1,4′-bipyridin]-2-one], in assay [1], the IC50 was 158 µM. Further, the “p38a/MK2 (10 μM) Enzyme pIC50” value in assay [2] was 5.4. The matching figures for `Cc1cnc(-c2cccc([C@H](O)CO)n2)cc1-n1c(C)cc(OCc2ncc(F)cc2F)c(Cl)c1=O` (atropisomer, axis not shown) [Example 16, 3-chloro-4-[(3,5-difluoropyridin-2-yl)methoxy]-2′-[6-(1,2-dihydroxyethyl)pyridin-2-yl]-5′,6-dimethyl-[1,4′-bipyridin]-2-one]: 15.8 µM and 7.4. With `Cc1cnc(-n2nc(C(C)(C)O)cc2C)cc1-n1c(C)cc(OCc2ncc(F)cc2F)c(Cl)c1=O` (single isomer, unassigned) [Example 19A, rel-3-chloro-4-((3,5-difluoropyridin-2-yl)methoxy)-2′-(3-(2-hydroxypropan-2-yl)-5-methyl-1H-pyrazol-1-yl)-5′,6-dimethyl-2H-[1,4′-bipyridin]-2-one], in assay [1], the IC50 was 5.01 µM. Regarding `Cc1cnc(-n2nc(C(C)(C)O)cc2C)cc1-n1c(C)cc(OCc2ncc(F)cc2F)c(Cl)c1=O` (single isomer, unassigned) [Example 19B, rel-3-chloro-4-((3,5-difluoropyridin-2-yl)methoxy)-2′-(3-(2-hydroxypropan-2-yl)-5-methyl-1H-pyrazol-1-yl)-5′,6-dimethyl-2H-[1,4′-bipyridin]-2-one], in assay [1], the IC50 is greater than 316 µM. The same measure, in the same setting: under `Cc1cnc(-n2nc(C(C)(C)O)cc2C2CC2)cc1-n1c(C)cc(OCc2ncc(F)cc2F)c(Cl)c1=O` (single isomer, unassigned) [Example 20A, rel-3-chloro-2′-[5-cyclopropyl-3-(2-hydroxypropan-2-yl)pyrazol-1-yl]-4-[(3,5-difluoropyridin-2-yl)methoxy]-5′,6-dimethyl-[1,4′-bipyridin]-2-one] stands 5.01 µM; under `Cc1cnc(-n2nc(C(C)(C)O)cc2C2CC2)cc1-n1c(C)cc(OCc2ncc(F)cc2F)c(Cl)c1=O` (single isomer, unassigned) [Example 20B, rel-3-chloro-2′-[5-cyclopropyl-3-(2-hydroxypropan-2-yl)pyrazol-1-yl]-4-[(3,5-difluoropyridin-2-yl)methoxy]-5′,6-dimethyl-[1,4′-bipyridin]-2-one], greater than 316 µM. Regarding `Cc1cnnc(COc2cc(C)n(-c3cc(-c4ccnc(C(C)(C)O)n4)ncc3C)c(=O)c2Cl)c1` (single isomer, unassigned) [Example 28B, rel-3-chloro-2′-[2-(2-hydroxypropan-2-yl)pyrimidin-4-yl]-5′,6-dimethyl-4-[(5-methylpyridazin-3-yl)methoxy]-[1,4′-bipyridin]-2-one], the IC50 in assay [1] is greater than 316 µM. As to `Cc1nn(-c2ccnc(C(C)(C)O)n2)cc1-n1c(C)cc(OCc2ncc(F)cc2F)c(Cl)c1=O` [Example 30, 3-chloro-4-[(3,5-difluoropyridin-2-yl)methoxy]-1-{1-[2-(2-hydroxypropan-2-yl)pyrimidin-4-yl]-3-methylpyrazol-4-yl}-6-methylpyridin-2-one], in assay [1], the IC50 was 25.1 µM.
